Here are results for one compound from ChEMBL document CHEMBL3259572, “Euodenine A: a small-molecule agonist of human TLR4” (J Med Chem, 2014).

Each structure is given as a SMILES string. The source made the active and inactive calls. No cut-off for these calls is given here.

For series [1], the target named is T1, Toll-like receptor 4 (Homo sapiens, UniProt O00206). The experiment in a line: Agonist activity at human recombinant TLR4 expressed in HEK293 cells by SEAP reporter assay. Format: cell-based.
The target in a further series is TLR2/TLR6 (Homo sapiens) (UniProt O60603+Q9Y2C9). Briefly: Agonist activity at human recombinant TLR2/6 expressed in HEK293 cells at 10 uM by SEAP reporter assay. Type of series: cell-based. A general note: Reporter assays use an easily measured gene product as a stand-in for the process of interest.
Series [2] concerns PBMC. The experiment in a line: Cytotoxicity against PHA-stimulated human PBMC at 20 uM by WST-1 cell proliferation assay. Format: cell-based. A general note: Tetrazolium dyes change colour on reduction, which living cells bring about.
In series [3] the target is T1, Toll-like receptor 4. The experiment in a line: Agonist activity at chimeric extracellular domain of human TLR4 fused with human intracellular domain expressed in HEK293 cells by NFkappaB reporter assay. Format: cell-based.
For another series, the system named is HEK293. The experiment in a line: Agonist activity at chimeric extracellular domain of human TLR4 fused with mouse intracellular domain expressed in HEK293 cells by NFkappaB reporter assay. Format: cell-based.
Series [4] addresses Toll-like receptor 3 (Homo sapiens) (UniProt O15455). The experiment in a line: Agonist activity at human recombinant TLR3 expressed in HEK293 cells at 10 uM by SEAP reporter assay. Type of series: cell-based.
The target in series [5] is T2, Toll-like receptor 7 (Homo sapiens) (UniProt Q9NYK1).
T2 sequence (whole entry): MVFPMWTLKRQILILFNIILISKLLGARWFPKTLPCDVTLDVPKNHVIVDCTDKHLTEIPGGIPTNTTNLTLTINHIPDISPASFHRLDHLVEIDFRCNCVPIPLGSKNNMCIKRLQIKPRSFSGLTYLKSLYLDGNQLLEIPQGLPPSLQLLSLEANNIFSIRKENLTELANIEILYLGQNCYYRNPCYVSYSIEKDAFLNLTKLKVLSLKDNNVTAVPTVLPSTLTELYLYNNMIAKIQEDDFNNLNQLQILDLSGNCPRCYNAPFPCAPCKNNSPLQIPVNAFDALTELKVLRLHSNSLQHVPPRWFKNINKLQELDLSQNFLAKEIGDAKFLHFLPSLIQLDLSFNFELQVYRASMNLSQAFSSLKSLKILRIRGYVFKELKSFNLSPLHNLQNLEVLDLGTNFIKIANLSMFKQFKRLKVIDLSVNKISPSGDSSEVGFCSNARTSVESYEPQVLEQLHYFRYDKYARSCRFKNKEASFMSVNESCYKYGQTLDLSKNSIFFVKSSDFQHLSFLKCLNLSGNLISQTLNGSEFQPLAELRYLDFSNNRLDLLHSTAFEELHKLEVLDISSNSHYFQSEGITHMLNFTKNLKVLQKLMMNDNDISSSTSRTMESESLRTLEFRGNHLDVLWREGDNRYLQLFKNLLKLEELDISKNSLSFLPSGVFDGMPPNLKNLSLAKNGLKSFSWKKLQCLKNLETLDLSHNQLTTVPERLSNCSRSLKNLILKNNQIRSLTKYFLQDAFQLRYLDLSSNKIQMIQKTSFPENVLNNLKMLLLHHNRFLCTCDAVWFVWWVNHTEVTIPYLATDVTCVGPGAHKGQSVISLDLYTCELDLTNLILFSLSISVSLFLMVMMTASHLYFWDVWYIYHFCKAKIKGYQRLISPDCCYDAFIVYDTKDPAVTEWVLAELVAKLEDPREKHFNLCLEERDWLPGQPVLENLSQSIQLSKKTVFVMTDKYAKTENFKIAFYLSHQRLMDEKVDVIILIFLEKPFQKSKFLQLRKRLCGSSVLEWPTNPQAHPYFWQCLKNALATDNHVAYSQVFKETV
Briefly: Agonist activity at human recombinant TLR7 expressed in HEK293 cells at 10 uM by SEAP reporter assay. Type of series: cell-based.

The target in series [6] is T3, Toll-like receptor 8 (Homo sapiens) (UniProt Q9NR97).
T3 sequence (whole entry): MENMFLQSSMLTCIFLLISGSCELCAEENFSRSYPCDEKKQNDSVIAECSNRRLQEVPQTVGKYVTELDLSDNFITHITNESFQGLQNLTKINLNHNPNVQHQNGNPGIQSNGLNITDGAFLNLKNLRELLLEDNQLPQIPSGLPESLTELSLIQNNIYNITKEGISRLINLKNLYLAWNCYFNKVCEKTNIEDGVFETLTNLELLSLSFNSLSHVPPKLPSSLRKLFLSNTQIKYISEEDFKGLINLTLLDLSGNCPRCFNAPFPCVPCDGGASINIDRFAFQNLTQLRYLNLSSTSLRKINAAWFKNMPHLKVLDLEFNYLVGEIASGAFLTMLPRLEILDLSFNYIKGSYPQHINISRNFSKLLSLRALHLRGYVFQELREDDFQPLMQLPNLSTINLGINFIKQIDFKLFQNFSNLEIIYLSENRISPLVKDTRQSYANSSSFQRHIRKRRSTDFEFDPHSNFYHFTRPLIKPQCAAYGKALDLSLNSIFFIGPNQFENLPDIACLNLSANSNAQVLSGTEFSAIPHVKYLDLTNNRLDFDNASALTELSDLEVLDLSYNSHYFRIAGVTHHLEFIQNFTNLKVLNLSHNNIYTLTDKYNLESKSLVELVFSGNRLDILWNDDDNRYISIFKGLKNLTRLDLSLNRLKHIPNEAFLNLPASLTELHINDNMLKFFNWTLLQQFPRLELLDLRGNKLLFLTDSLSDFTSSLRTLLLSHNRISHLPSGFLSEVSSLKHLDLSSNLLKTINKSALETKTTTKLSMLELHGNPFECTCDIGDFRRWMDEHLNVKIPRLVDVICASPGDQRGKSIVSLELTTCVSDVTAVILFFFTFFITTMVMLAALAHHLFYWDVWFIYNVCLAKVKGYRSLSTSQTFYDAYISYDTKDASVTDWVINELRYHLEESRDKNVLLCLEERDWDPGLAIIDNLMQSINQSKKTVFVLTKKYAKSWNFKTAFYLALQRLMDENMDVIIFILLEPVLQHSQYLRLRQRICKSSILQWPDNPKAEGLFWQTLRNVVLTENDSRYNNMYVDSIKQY
Briefly: Agonist activity at human recombinant TLR8 expressed in HEK293 cells at 10 uM by SEAP reporter assay. Type of series: cell-based.

Series [7] deals with T1, Toll-like receptor 4. The experiment in a line: Agonist activity at human recombinant TLR4 expressed in HEK293 cells coexpressed with mouse MD2 assessed as TNFalpha response by NFkappaB reporter assay. Type of series: cell-based.
Series [8] concerns PBMC. Briefly: Induction of IL-12p40 production in human PBMC at 10 uM by ELISA. Format: functional, cell-based. A general note: An ELISA detects its analyte on a solid surface through an enzyme-linked reagent.
Series [9] deals with PBMC. The experiment in a line: Induction of IL-10 production in human PBMC at 10 uM by ELISA. Type of series: functional, cell-based.
The subject of series [10] is PBMC. The experiment in a line: Induction of TNFalpha production in human PBMC at 10 uM by ELISA. Type of series: functional, cell-based.
The test system of series [11] is PBMC. Briefly: Induction of IL-8 production in human PBMC at 10 uM by ELISA. Format: functional, cell-based.
The subject of series [12] is PBMC. Briefly: Suppression of PHA-induced IL-5 release in human PBMC at 10 uM by ELISA. Type of series: functional, cell-based.
The target of series [13] is T1, Toll-like receptor 4. The experiment in a line: Intrinsic activity at human recombinant TLR4 expressed in HEK293 cells by SEAP reporter assay relative to LPS. Format: cell-based.
The target in series [14] is Toll-like receptor 2 (Homo sapiens) (UniProt O60603). The experiment in a line: Agonist activity at human recombinant TLR2 expressed in HEK293 cells by SEAP reporter assay. Format: cell-based.
Toll-like receptor 2 (Homo sapiens), sequence (O60603 whole entry): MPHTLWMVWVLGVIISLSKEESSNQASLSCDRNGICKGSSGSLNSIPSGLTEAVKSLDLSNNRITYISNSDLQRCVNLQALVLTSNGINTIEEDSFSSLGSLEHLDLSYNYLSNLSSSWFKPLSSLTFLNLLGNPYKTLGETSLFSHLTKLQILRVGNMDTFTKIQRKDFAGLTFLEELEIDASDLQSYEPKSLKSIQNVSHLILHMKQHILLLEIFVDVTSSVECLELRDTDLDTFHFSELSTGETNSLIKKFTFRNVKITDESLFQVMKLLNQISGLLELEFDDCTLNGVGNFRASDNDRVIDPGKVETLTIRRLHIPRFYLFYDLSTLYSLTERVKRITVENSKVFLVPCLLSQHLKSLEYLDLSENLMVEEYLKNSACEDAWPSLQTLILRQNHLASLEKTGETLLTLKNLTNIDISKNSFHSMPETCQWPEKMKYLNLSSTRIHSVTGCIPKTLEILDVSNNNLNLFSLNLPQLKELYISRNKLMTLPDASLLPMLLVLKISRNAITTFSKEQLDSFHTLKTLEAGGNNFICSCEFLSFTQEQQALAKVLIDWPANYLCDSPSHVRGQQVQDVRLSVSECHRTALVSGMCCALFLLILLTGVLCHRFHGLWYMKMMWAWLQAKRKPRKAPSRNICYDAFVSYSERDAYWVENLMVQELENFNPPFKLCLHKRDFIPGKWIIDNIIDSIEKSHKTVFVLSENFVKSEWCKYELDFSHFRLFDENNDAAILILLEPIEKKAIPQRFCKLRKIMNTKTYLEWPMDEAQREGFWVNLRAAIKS

T1 sequence (O00206 whole entry): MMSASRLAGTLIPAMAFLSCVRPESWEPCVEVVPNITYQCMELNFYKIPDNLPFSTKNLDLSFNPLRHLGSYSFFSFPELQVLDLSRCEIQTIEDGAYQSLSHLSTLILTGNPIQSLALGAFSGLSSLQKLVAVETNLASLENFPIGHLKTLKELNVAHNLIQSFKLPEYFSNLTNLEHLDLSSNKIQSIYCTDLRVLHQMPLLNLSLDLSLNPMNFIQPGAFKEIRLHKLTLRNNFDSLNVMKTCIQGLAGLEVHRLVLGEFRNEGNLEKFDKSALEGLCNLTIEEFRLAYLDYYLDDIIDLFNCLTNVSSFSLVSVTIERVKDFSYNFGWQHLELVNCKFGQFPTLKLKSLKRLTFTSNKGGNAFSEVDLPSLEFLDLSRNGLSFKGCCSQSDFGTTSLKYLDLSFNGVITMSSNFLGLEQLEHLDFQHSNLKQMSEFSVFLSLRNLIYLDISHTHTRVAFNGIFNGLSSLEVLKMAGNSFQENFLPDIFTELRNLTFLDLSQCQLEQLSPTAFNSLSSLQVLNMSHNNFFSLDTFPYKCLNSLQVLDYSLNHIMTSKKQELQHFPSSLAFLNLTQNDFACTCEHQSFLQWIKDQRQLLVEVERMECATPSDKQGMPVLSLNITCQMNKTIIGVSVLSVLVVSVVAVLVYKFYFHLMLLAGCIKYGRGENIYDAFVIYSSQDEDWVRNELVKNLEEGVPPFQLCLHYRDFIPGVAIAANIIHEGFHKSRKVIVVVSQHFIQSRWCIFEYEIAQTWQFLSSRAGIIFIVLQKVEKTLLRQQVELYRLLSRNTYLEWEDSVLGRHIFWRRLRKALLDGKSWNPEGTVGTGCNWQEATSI
Toll-like receptor 3 (Homo sapiens), sequence (O15455 whole entry): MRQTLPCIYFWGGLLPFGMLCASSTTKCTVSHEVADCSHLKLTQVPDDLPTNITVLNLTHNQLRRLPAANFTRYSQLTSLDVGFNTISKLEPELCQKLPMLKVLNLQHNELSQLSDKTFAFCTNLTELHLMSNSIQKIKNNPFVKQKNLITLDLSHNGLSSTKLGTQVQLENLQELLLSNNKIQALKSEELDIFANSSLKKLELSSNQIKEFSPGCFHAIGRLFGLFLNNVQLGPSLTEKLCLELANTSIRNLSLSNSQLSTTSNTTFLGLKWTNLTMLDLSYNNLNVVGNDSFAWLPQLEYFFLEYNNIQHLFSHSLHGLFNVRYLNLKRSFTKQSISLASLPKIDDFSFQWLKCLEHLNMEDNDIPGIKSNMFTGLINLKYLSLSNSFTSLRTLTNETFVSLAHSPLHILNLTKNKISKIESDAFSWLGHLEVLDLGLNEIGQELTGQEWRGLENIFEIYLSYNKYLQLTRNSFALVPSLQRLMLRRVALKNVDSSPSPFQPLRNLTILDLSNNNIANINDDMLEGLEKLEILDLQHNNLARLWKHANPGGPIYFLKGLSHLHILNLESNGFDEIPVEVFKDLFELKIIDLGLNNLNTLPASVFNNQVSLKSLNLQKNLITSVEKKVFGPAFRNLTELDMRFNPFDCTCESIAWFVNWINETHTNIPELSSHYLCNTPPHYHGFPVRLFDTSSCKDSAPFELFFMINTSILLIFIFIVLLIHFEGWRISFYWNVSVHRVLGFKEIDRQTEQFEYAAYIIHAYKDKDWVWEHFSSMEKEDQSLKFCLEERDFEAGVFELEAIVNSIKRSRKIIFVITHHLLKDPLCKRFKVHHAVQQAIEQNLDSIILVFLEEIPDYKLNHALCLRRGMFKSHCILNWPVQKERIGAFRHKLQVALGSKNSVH

With `COc1cc([C@@H]2[C@@H](C)[C@H]3[C@@H]2c2c(c4ccccc4[nH]c2=O)OC3(C)C)cc(OC)c1OC`, the 50% effective concentration (EC50) at Toll-like receptor 4 [1] turned out to be 3.9 µM. The result (on TLR2/TLR6 (Homo sapiens); in series [4]; in series [5]; in series [6]; at Toll-like receptor 4 [7]; in series [14]) was inactive. For the same compound, in the series on PBMC [2], the Activity entry is recorded as “Non-toxic”. Further, the outcome at Toll-like receptor 4 [3], in the series with HEK293, in the series with PBMC [8], in the series with PBMC [9], with PBMC [10] and in the series with PBMC [11] was Active. Also, the inhibition entry in the series on PBMC [12] is “Active”. The Intrinsic activity at Toll-like receptor 4 [13] turned out to be 0.95.

As a reminder, the EC50 is the concentration giving half of the maximal effect.
